Source: US11571411B2, “Use of a bisamide derivative of malonic acid for treating allergic and other diseases in humans and animals” (PHARMENTERPRISES ALLERGY LLC, priority 2018, dated 2023)

Test system: ovalbumin-induced allergic rhinitis model
Assay: Ovalbumin-induced allergic rhinitis model in guinea pigs, nasal administration of 1% solution
Format: in vivo, guinea pig
Conditions: for Number of eosinophils per 1 μL of lavage fluid / Number of nose scratchings / Number of sneezes: 1% solution once intranasally
Protocol: Int Immunopharmacol. 2013. V.17(1). P.18-25]. Guinea pigs (250-300 g) were immunized with 4× (on days 0, 7, 14 and 21) intraperitoneal administration of a mixture of ovalbumin (100 μg/pig) and aluminum hydroxide (5 mg/pig), diluted and suspended in saline. On day 28 of the study, an ovalbumin solution (60 mg/ml) was injected intranasally to the animals, 20 μl into each nostril. On day 35, after shaving the skin on the back, the animals were injected intradermally with an ovalbumin solution (200 μg/ml, 25 μl). […] On day 42 of the study, an ovalbumin solution (60 mg/ml, 20 μl/nostril) was administered intranasally. A group of sham-immunized animals was formed in order to control the formation of allergic inflammation: the pigs received an aluminum hydroxide solution (5 mg/pig) on days 0, 7, 14 and 21, a saline solution on days 28 and 35, and an ovalbumin solution (60 mg/ml, 20 μl/nostril) on day 42.
A 1% solution of Compound I was administered to the animals intranasally once 1 hour or 3 hours before intranasal administration of ovalbumin in a volume of 10 μl/nostril. Clinical manifestations of rhinitis were assessed within 2 hours after the last administration of ovalbumin: the numbers of sneezes and nose scratchings were counted. In addition, eosinophils were counted in the nasal lavage fluid.

[1] = 1 hour before the last administration of ovalbumin
[2] = 3 hours before the last administration of ovalbumin

O=C(CC(=O)NCCc1cnc[nH]1)NCCc1cnc[nH]1 [Compound I, N,N′-bis(2-(1H-imidazol-5-yl)ethyl)malonamide]
duration of the therapeutic effect (1% solution intranasally, guinea pigs, allergic rhinitis): at least 3 hours
Number of eosinophils per 1 μL of lavage fluid [1]: 1416.9 ± 126.8*#& per 1 μL
Number of nose scratchings [1]: 14.5 ± 4.4&
Number of sneezes [1]: 3.1 ± 1.2#&
Number of eosinophils per 1 μL of lavage fluid [2]: 1490.1 ± 241.0*#& per 1 μL
Number of nose scratchings [2]: 10.7 ± 2.1#&
Number of sneezes [2]: 3.9 ± 1.5&
